These results are taken from patent US10485814B2, “Nicotinamide riboside analogs and pharmaceutical compositions and uses thereof” (GlaxoSmithKline Intellectual Property (No. 2) Limited, priority 2014, dated 2019).

“Also recorded” adds a separate entry of the source.

Common to all, as to assay type: cell-based
Experiment [1] deals with HaCaT cells (a human keratinocyte cell line). Description: Intracellular NAD measurement in HaCaT cells (ADPR cyclase enzymatic assay, absorbance 405 nm). The protocol:
HaCaT cells (AddexBio Technologies, San Diego, Calif., Passage 16-19) were grown in Medium DMEM/GlutMax (Life technologies, Grand Island, N.Y.) supplemented with 10% FBS (Life technologies) and Non-essential amino acids (NEAA, Life technologies) and then seeded in 12-well plates (Corning, Tewksbury, Mass.) with a density at 2×10^5 cells per well and 2 ml of culture medium in each well for overnight.
Stock solution of dihydronicotinamide riboside (NRH, GSK3008320A, GSK, RTP, NC) was prepared in ethanol at 100 mM (25.6 mg/ml) and stored at −20° C. Cells were treated with different concentrations of NRH for 3 hrs, washed twice with PBS containing 5 mM EDTA, and then subject to Nicotinamide adenine dinucleotide (NAD) measurement. In brief, acetonitrile (ACN) lysis buffer (Ammonium Acetate (50 mM) and 90% acetonitrile) was added to each well (200 μl/well) to lyse the cells at RT for 5-10 mins by gently rotating on a culture plate shaker at a low speed. Enzyme master mix (300 μM of 5-Amino-(3,4′-bipyridin)-6(1H)-one (Inamrinone) (Sigma-Aldrich), a substrate for ADP ribosyl cyclase (ADPR cyclase)) and 30 nM ADPR Cyclase (Sigma, St. Louis, Mo.), 7.5 μM of N-(2-fluoro-4-(methylsulfonyl)phenyl)-2-methyl-6-(thiazol-5-yl)isonicotinamide (a CD38 inhibitor) in 75 mM HEPES pH7 buffer (Life Technologies)) was added to the lysed cells (400 μl of enzyme master mix/well). Enzymatic reaction was incubated at RT for ˜30 min. At the end of incubation, the supernatant (200 μl) of the reaction solution from each well was transferred to each well of a 96-well plate and absorbance was read twice in the 96-well plate at 405 nm using a plate reader (Spectra Maxplus, Molecular Devices, Sunnyvale, Calif.). A mixture of enzyme master mix and ACN extraction solution at 2:1 ratio was used as a blank reference. NAD (Sigma) was used as a positive control.
HaCaT cells were grown as described in example 23 in the regular cell culture DMEM medium as described earlier or in the Epilife medium without nacinamide (Life Technologies). Cells were treated with different concentrations of NRH or niacinamide (NIA, DSM nutritional products) for 3 hrs, washed twice with PBS containing 5 mM EDTA, and then subject to Nicotinamide adenine dinucleotide (NAD) measurement as described in example 23. A mixture of enzyme master mix and ACN extraction solution at 2:1 ratio for a blank reference. NAD (Sigma) was used as a positive control. […] Both the CD38 inhibitor and Niacinamide increased NAD in the HaCaT cells cultured in the Vit B3 depleted culture medium, and the induction of NAD by niacinamide was dose-dependent (solid bars). However, the induction of NAD by niacinamide (highest at ˜1.5 fold) was low compared to those by NRH. Therefore, NRH is a stronger NAD inducer compared to a CD38 inhibitor or Niacinamide.
HaCaT cells were grown in regular culture media as described in example 1 and seeded in 12-well plates with density at 2×10^5 cells per well and 1 ml of culture medium in each well. NRH stock solution was prepared in ethanol at 100 mM (25.6 mg/ml) and stored at −20° C. Stock solutions of NRH esters were made at 50 mM in DMSO (see FIG. 9B for compound info). Cells were treated with NRH esters and NRH at 150 μM for 6 and 16 hrs, washed twice with PB S containing 5 mM EDTA, and then subject to Nicotinamide adenine dinucleotide (NAD) measurement as described in example 23.
HaCaT cells were grown in regular culture media as described above and seeded in 12-well plates with density at 2×10^5 cells per well and 1 ml of culture medium in each well. NRH stock solution was prepared in ethanol at 100 mM (25.6 mg/ml) and stored at −20° C. NRH (200 μM) was used as a positive control. Because of the possible solubility issue related to NRH monoC16, fatty acid-free bovine serum albumin (defatted BSA, Sigma) was used as a carrier for the compound. NRH monoC16 stock solution (100×) was complexed with defatted BSA ([…]) prior to the treatment, resulting in a NRH monoC16 stock solution (10 ×). […]

Experiment [2] deals with Human primary dermal fibroblasts (HDFa). Description: Intracellular NAD measurement in human primary dermal fibroblasts. Conditions: different concentrations, 3 hrs, absorbance at 405 nm. The method, then: Human primary dermal fibroblasts derived from adult human skins (HDFa, Life technologies, Grand Island, N.Y., Passage 2-4) were grown in Medium 106 (Life Technologies) supplemented with Low Serum Growth Supplement (LSGS) (Life Technologies) and seeded in 12-well plates with density at 2×10^5 cells per well and 2 ml of culture medium in each well.
Stock solution of dihydronicotinamide riboside (NRH, GSK3008320A, GSK, RTP, NC) was prepared in ethanol at 100 mM (25.6 mg/ml) and stored at −20° C. Cells were treated with different concentrations of NRH for 3 hrs, washed twice with PBS containing 5 mM EDTA, and then subject to Nicotinamide adenine dinucleotide (NAD) measurement. In brief, acetonitrile (ACN) lysis buffer (Ammonium Acetate (50 mM) and 90% acetonitrile) was added to each well (200 μl/well) to lyse the cells at RT for 5-10 mins by gently rotating on a culture plate shaker at a low speed. […] At the end of incubation, the supernatant (200 μl) of the reaction solution from each well was transferred to each well of a 96-well plate and absorbance was read twice in the 96-well plate at 405 nm using a plate reader (Spectra Maxplus, Molecular Devices, Sunnyvale, Calif.). […]

Experiment [3] concerns Reconstructed human epidermis (EpiDerm, EPI-200). As to the kind of experiment: UVB-induced inflammation mediators in reconstructed epidermal equivalents. Conditions: topical 1 hr pre-treatment, NRH 0.1% or niacinamide 3%; UVB 150 mJ/cm^2; media 6 hr post irradiation. From the text: Solar Ultraviolet (UV) light exposure on skin causes photoaging, sunburn, DNA damages and carcinogenesis. UV radiation (UVR) also results in inflammation, which can be measured in vitro by pro-inflammatory mediators, e.g., TNF-α, IL-8. The in vitro reconstructed human epidermis (RHE) model is used to evaluate the anti-inflammatory effect of NRH.
Reconstructed human epidermis (EpiDerm, EPI-200, made of normal human epidermal keratinocytes, MatTek, Ashland, Mass.), were placed into media (EPI-100-ASY, 1.0 ml/well of 6-well plates) and incubated overnight at 37° C./5% CO2. The media was replenished with fresh culture media prior to study. NRH at 0.1% and niacinamide at 3% in vehicle (50% H2O/35% ethanol/15% propylene glycol, v/v/v) were applied topically at 6 μl and then gently spread onto the skin equivalents (˜20 rotations) using the rubber side of a plunger of 1 ml syringe. Vehicle was served as an untreated control. After 1 hr pre-treatment with NRH, niacinamide, or vehicle control, the EpiDerm tissues were transferred to a sterile 6-well plate containing 1 ml of DPBS per well and then exposed to UVB at 150 mJ/cm^2. The Newport Solar Simulator System (Power unit 69920, and Lamp 91192-1000, Newport Corporate, Irvine, Calif.) was used as the UVB emitter to achieve a UVB irradiation of 150 mJ/cm^2. Measurement of the irradiation was taken using an ILT-1400 Handheld, Portable Radiometer/Photometer (International Light Technologies, Inc., Peabody, Mass.) with a UVB detector (SEL240/T2ACT5, 235-307 nm, International Light Technologies, Inc.). After UVB irradiation, EpiDerm tissues were transferred back to the 6-well plate containing media and incubated at 37° C./5% CO2 for 6 hours. At the end of the incubation (6 hr post UVB irradiation), culture media were collected for the measurement of IL-8, and TNF-α concentration by MagPix (Millipore, HCYTOMAG-60K).

`NC(=O)C1=CN([C@@H]2O[C@H](CO)[C@@H](O)[C@H]2O)C=CC1` [NRH, dihydronicotinamide riboside] gave an NAD levels elevation in experiment [1] (HaCaT in DMEM medium with Vit B3, 450 μM, 3 hrs) of around 6 fold. Moreover, in experiment [1] (HaCaT keratinocytes, different concentrations, 3 hrs, absorbance at 405 nm), the NAD level entry is given as “dose-dependently increases NAD; also recorded: dose-dependently increases NAD^+”. The NAD boosting activity result in experiment [1] (HaCaT, 150 μM, 6 and 16 hrs) is recorded as “consistently showed strong activity on NAD elevation”. The NAD level result in experiment [2] is “dose-dependently increases NAD; also recorded: dose-dependently increases NAD^+”. Moreover, in experiment [3], the “UVB-induced IL-8” value is recorded as “inhibited; also recorded: reduces” and the “UVB-induced TNF-α” value is “inhibited; also recorded: reduces”.
